How the values were obtained:
human AT1 receptor = target: T1, human AT1 receptor (Homo sapiens, UniProt P30556); assay: AT1 radioligand binding assay (Assay 1); settings: displacement of [Eu]AngII, membranes of CHO-K1 cells expressing human AT1 receptor; read-out: pKi at the AT1 receptor (converted)
T1 construct: expressed in transfected cells; membranes
T1 sequence (P30556 1-359): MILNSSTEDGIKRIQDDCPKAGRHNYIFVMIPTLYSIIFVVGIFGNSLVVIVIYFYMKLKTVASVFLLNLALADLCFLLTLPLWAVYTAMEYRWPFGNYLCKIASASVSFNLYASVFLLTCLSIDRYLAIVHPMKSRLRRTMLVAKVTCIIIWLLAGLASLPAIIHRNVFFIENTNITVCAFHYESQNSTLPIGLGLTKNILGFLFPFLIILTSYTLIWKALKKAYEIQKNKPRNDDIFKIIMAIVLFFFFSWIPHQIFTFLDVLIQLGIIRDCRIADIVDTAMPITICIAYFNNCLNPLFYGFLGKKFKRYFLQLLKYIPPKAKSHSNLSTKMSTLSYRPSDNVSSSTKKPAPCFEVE
Method: These in vitro assays were used to assess the ability of test compounds to bind to the AT1 and the AT2 receptors.
Membrane Preparation From Cells Expressing Human AT1 or AT2 Receptors
Chinese hamster ovary (CHO-K^1) derived cell lines stably expressing the cloned human AT1 or AT2 receptors, respectively, were grown in HAM's-F12 medium supplemented with 10% fetal bovine serum, 10 μg/ml penicillin/streptomycin, and 500 μg/ml geneticin in a 5% CO2 humidified incubator at 37° C. AT2 receptor expressing cells were grown in the additional presence of 100 nM PD123,319 (AT2 antagonist). When cultures reached 80-95% confluence, the cells were washed thoroughly in PBS and lifted with 5 mM EDTA. Cells were pelleted by centrifugation and snap frozen in MeOH-dry ice and stored at −80° C. until further use.
For membrane preparation, cell pellets were resuspended in lysis buffer (25 mM Tris/HCl pH 7.5 at 4° C., 1 mM EDTA, and one tablet of Complete Protease Inhibitor Cocktail Tablets with 2 mM EDTA per 50 mL buffer (Roche cat.#1697498, Roche Molecular Biochemicals, Indianapolis, Ind.)) and homogenized using a tight-fitting Dounce glass homogenizer (10 strokes) on ice. The homogenate was centrifuged at 1000×g, the supernatant was collected and centrifuged at 20,000×g. […] Protein concentration of the membrane suspension was determined by the method described in Bradford (1976) Anal Biochem. 72:248-54. […]

NEP enzyme = target: T2, NEP enzyme (Homo sapiens, UniProt P08473); assay: In vitro NEP enzyme inhibition assay (Assay 2); assay type: biochemical; settings: fluorogenic peptide substrate; species of NEP (human or rat) not given; read-out: pIC50 for the NEP enzyme (converted)
T2 construct: purchased R&D Systems, Minneapolis, Minn; 1182-ZN
T2 sequence (P08473 52-750 limits assumed): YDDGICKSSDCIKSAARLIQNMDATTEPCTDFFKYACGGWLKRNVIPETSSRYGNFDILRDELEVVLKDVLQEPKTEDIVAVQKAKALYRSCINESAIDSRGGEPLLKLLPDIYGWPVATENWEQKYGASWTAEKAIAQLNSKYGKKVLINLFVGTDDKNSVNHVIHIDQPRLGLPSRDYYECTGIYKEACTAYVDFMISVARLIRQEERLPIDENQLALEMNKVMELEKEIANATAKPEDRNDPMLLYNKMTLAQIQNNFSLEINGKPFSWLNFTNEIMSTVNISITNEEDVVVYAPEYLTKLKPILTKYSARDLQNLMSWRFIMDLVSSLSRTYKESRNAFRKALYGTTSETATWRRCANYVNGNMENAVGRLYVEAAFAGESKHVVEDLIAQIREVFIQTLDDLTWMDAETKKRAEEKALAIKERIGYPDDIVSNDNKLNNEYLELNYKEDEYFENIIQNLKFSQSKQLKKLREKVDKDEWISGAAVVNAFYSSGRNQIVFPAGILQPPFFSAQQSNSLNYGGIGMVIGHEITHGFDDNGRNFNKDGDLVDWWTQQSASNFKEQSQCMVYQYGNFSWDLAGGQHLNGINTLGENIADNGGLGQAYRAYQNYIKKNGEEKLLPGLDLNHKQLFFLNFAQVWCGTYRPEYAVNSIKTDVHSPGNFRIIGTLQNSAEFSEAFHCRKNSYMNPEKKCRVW
Method: The inhibitory activities of compounds at human and rat NEP and human ACE were determined using in vitro assays as described below.
Rat NEP was prepared from the kidneys of adult Sprague Dawley rats. Whole kidneys were washed in cold PBS and brought up in ice-cold lysis buffer (1% Triton X-114, 150 mM NaCl, 50 mM Tris pH 7.5; Bordier (1981) J. Biol. Chem. 256:1604-1607) in a ratio of 5 mL of buffer for every gram of kidney. Samples were homogenized using a polytron hand held tissue grinder on ice. Homogenates were centrifuged at 1000×g in a swinging bucket rotor for 5 minutes at 3° C. The pellet was resuspended in 20 mL of ice cold lysis buffer and incubated on ice for 30 minutes. […] Protein concentrations were quantitated using a BCA detection system with BSA as a standard. […]
The assays were performed in 384-well white opaque plates at room temperature using the respective fluorogenic peptides at a concentration of 10 μM in assay buffer (50 mM Tris/HCl at 25° C., 100 mM NaCl, 0.01% Tween-20, 1 μM Zn, 0.025% BSA). […] The rat NEP enzyme preparation was used at a concentration that yielded quantitative proteolysis of 3 μM of Mca-RRL within 20 minutes at room temperature.
Assays were started by adding 25 μL of enzyme to 12.5 μL of test compound at 12 concentrations (10 μM to 20 pM). […] Plates were read on a fluorometer with excitation and emission wavelengths set to 320 nm and 405 nm, respectively. […]

- Ki (human AT1 receptor): < 100 nM
- IC50 (NEP enzyme): ≤ 100 nM
SMILES: CCCc1nc2c(C)cc(C(=O)N[C@@H](CC(=O)NO)Cc3ccccc3)cc2n1Cc1ccc(-c2ccccc2C(=O)O)cc1 [Example 1, 4′-[6-((R)-1-Benzyl-2-hydroxycarbamoylethylcarbamoyl)-4-methyl-2-propylbenzoimidazol-1-ylmethyl]biphenyl-2-carboxylic Acid]

From patent US8637676B2, “Dual-acting benzoimidazole antihypertensive agents” (Theravance, Inc., priority 2007, dated 2014)
